These results are taken from ChEMBL document CHEMBL4680085 (J Med Chem, 2016).

The source made the active and inactive calls. No cut-off for these calls is given here. A value given as a limit tells only on which side of the number the result lay.

For data set [1], the system named is SH-SY5Y. The data set is described as follows: Neuroprotection in human SH-SY5Y cells assessed as reduction in beta-amyloid peptide (1-40)-induced cell death at 1 uM incubated for 24 hrs by MTT assay. It counts as functional. Further details: scale not given: the % may be the effect or the level left. A general note: Tetrazolium assays rely on reduction of a dye to a coloured formazan, in cell work by metabolically active cells.

For data set [2], the system named is SH-SY5Y. Description: Neuroprotection in human SH-SY5Y cells assessed as reduction in beta-amyloid peptide (1-40)-induced cell death at 3 uM incubated for 24 hrs by MTT assay. Also on record: scale not given: the % may be the effect or the level left. Format: functional.
Data set [3] deals with SH-SY5Y. The data set is described as follows: Neuroprotection in human SH-SY5Y cells assessed as reduction in beta-amyloid peptide (1-40)-induced cell death at 0.01 uM incubated for 24 hrs by MTT assay. It counts as functional. Further details: scale not given: the % may be the effect or the level left.
Data set [4] has as its system SH-SY5Y. Description: Neuroprotection in human SH-SY5Y cells assessed as reduction in beta-amyloid peptide (1-40)-induced cell death at >0.01 uM incubated for 24 hrs by MTT assay. Format: functional, cell-based. Particulars: dose microM >0.01, time […].
Data set [5] has as its system SH-SY5Y. The data set is described as follows: Neuroprotection in human SH-SY5Y cells assessed as reduction in beta-amyloid peptide (1-42)-induced cell death at 3 uM incubated for 24 hrs by MTT assay. Also on record: scale not given: the % may be the effect or the level left. Format: functional.
Data set [6] has as its system SH-SY5Y. Description: Neuroprotection in human SH-SY5Y cells assessed as reduction in beta-amyloid peptide (1-42)-induced cell death at 1 uM incubated for 24 hrs by MTT assay. It counts as functional. Further details: scale not given: the % may be the effect or the level left.
In data set [7] the test system is SH-SY5Y. Description: Neuroprotection in human SH-SY5Y cells assessed as reduction in beta-amyloid peptide (1-42)-induced cell death at 0.01 uM incubated for 24 hrs by MTT assay. Further details: scale not given: the % may be the effect or the level left. Format: functional.
The subject of data set [8] is SH-SY5Y. The data set is described as follows: Neuroprotection in human SH-SY5Y cells assessed as reduction in beta-amyloid peptide (1-42)-induced cell death at >0.01 uM incubated for 24 hrs by MTT assay. It counts as functional, cell-based. To be noted: dose microM >0.01, time […].
Data set [9] relates to SH-SY5Y. Description: Neuroprotection in human SH-SY5Y cells assessed as reduction in H2O2-induced cell death at 1 uM incubated for 24 hrs by MTT assay. It counts as functional. Further details: scale not given: the % may be the effect or the level left.
For data set [10], the system named is SH-SY5Y. Description: Neuroprotection in human SH-SY5Y cells assessed as reduction in H2O2-induced cell death at 3 uM incubated for 24 hrs by MTT assay. It counts as functional. Also on record: scale not given: the % may be the effect or the level left.
Data set [11] concerns SH-SY5Y. The data set is described as follows: Neuroprotection in human SH-SY5Y cells assessed as reduction in H2O2-induced cell death at 0.01 uM incubated for 24 hrs by MTT assay. Also on record: scale not given: the % may be the effect or the level left. It counts as functional.
The test system of data set [12] is SH-SY5Y. Description: Neuroprotection in human SH-SY5Y cells assessed as reduction in H2O2-induced cell death at >0.01 uM incubated for 24 hrs by MTT assay. Particulars: dose microM >0.01, time […]. It counts as functional, cell-based.
Data set [13] relates to SH-SY5Y. The data set is described as follows: Neuroprotection in human SH-SY5Y cells assessed as reduction in Rotenone/Oligomycin A -induced cell death at 1 uM incubated for 24 hrs by MTT assay. Format: functional. Also on record: scale not given: the % may be the effect or the level left.
The test system of data set [14] is SH-SY5Y. The data set is described as follows: Neuroprotection in human SH-SY5Y cells assessed as reduction in Rotenone/Oligomycin A -induced cell death at 3 uM incubated for 24 hrs by MTT assay. Format: functional. Also on record: scale not given: the % may be the effect or the level left.
In data set [15] the test system is SH-SY5Y. The data set is described as follows: Neuroprotection in human SH-SY5Y cells assessed as reduction in Rotenone/Oligomycin A -induced cell death at 0.01 uM incubated for 24 hrs by MTT assay. Format: functional. Further details: scale not given: the % may be the effect or the level left.
The test system of data set [16] is SH-SY5Y. Description: Neuroprotection in human SH-SY5Y cells assessed as reduction in Rotenone/Oligomycin A -induced cell death at >0.01 uM incubated for 24 hrs by MTT assay. It counts as functional, cell-based. Particulars: dose microM >0.01, time […].
The target in data set [17] is T1, Nuclear factor erythroid 2-related factor 2 (Homo sapiens) (UniProt Q16236).
T1 sequence (whole entry): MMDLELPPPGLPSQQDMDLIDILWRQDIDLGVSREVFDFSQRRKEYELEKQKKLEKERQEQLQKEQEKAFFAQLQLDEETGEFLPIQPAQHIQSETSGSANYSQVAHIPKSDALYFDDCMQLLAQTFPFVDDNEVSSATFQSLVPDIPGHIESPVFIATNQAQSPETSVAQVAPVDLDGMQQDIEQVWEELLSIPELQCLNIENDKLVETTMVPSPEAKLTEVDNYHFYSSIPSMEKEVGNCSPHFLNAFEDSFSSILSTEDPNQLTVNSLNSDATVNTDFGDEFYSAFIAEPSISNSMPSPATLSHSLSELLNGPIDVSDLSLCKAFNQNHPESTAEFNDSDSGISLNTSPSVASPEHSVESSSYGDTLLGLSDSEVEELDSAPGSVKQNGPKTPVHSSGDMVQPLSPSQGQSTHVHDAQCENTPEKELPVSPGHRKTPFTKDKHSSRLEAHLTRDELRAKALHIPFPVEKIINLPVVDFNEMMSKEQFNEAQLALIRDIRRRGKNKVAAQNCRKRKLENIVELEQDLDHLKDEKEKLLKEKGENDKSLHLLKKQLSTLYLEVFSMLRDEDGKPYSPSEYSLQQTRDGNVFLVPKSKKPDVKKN
The data set is described as follows: Activation of NRF2 in human MCF-7/AREc32 cells at 3 uM incubated for 24 hrs by luciferase reporter gene assay. It counts as cell-based. To be noted: MCF7, filed as activator. (A reporter such as luciferase makes a cellular process visible.)

Data set [18] has as its target T1, Nuclear factor erythroid 2-related factor 2 (Homo sapiens). Description: Activation of NRF2 in human MCF-7/AREc32 cells at 10 to 30 uM incubated for 24 hrs by luciferase reporter gene assay. To be noted: MCF7, filed as activator, dose 10-30 µM. Format: cell-based.
Data set [19] has the same target. The data set is described as follows: Activation of NRF2 in human MCF-7/AREc32 cells assessed as concentration required to double Nrf2 transcriptional pathway by measuring specific luciferase reporter activity incubated for 24 hrs by luciferase reporter gene assay. It counts as cell-based. To be noted: MCF7.
Data set [20] is described as follows: in vitro. To be noted: human, HepG2 cells.
Description: Toxicity in human HepG2 cells assessed as cell viability at 100 uM by MTT assay relative to control
Data set [21] in a line: in vitro. Particulars: human, HepG2 cells. The source holds these as a separate data set.
Description: Toxicity in human HepG2 cells assessed as cell viability at 300 uM by MTT assay relative to control
The nature of data set [22]: in vitro. To be noted: human, HepG2 cells. This is another data set of the same source.
Description: Toxicity in human HepG2 cells assessed as cell viability at 1000 uM by MTT assay relative to control

Broadly, the viability is a per cent measure of how many cells are alive, often set against a control. With `COc1ccc2[nH]cc(CCNC(C)=O)c2c1` [MELATONIN], the Activity turned out to be 35.5% in the data set with SH-SY5Y [1]; 60.2% in the data set on SH-SY5Y [2]; 33% with SH-SY5Y [3]; 15.3% in the data set with SH-SY5Y [5]; 39.4% with SH-SY5Y [6]; 81.4% in the data set on SH-SY5Y [7]. For the same compound, the Activity is on record as 47.4% in the data set with SH-SY5Y [9]; 60.7% with SH-SY5Y [10]; 55.4% in the data set with SH-SY5Y [11]; 50.1% with SH-SY5Y [13]; 59.1% with SH-SY5Y [14]; 66.6% with SH-SY5Y [15]. Moreover, the result with SH-SY5Y [4], in the data set on SH-SY5Y [8], in the data set on SH-SY5Y [12] and in the data set with SH-SY5Y [16] was inactive. In addition, the outcome in [17] and in [18] was Active. Further, in [19], the CD was more than 60 µM. In the data set “in vitro [20]”, the viability at 100 µM is 91.4%. Also, the viability at 300 µM in “in vitro [21]” was determined as 71.8%. Also, the viability at 1000 µM in the data set “in vitro [22]” is 72.3%.
